# Source: EP4786454A1, “HETEROARYL DERIVATIVE AND USE THEREOF” (priority 2023, dated 2025)
# Target: T1, hKCNQ2/3 (Homo sapiens, UniProt O43525+O43526)
# T1 construct: expressed in transfected cells; host or cells: CHO
# Assay: hKCNQ2/3 thallium flux assay (FLIPR)
# Assay type: cell-based
# Settings: agonistic effect, CHO cell line stably expressing hKCNQ2/3
# Text: The present disclosure also provides the following assay methods: • Assay method 1: hKCNQ2/3 thallium flux assay • Purpose of the assay: To determine the in vitro concentration-response relationship of the compounds in a CHO cell line stably expressing hKCNQ2/3 using FLIPR thallium flux assay.
# CHO cells stably transfected with hKCNQ2/3.
# The cell line was passaged three times a week at a split ratio of 1:2 to 1:3. When the cells grew to a confluence degree of greater than 80% in a T-75 cell flask, they were digested with 0.25% trypsin-EDTA solution for about 1 minute, and then the cells were transferred from the cell flask for passage. According to the split ratio, the cells were transferred to another T-75 cell flask containing complete cell growth culture medium. Note: In order to maintain the logarithmic growth of cells, the cell growth should be maintained in a subconfluent monolayer state. The cells were passaged every 2 to 3 days according to the cell doubling time.
# • (1) Day 1, cell preparation: The cells were digested according to the above method, and the cell density and viability were determined using Cell Countess. The volume of the single-cell suspension was adjusted with complete cell growth culture medium. Then, the hKCNQ2/3_CHO cells were seeded at a density of approximately 20,000 cells/well (30 µL/well) into a PDL-precoated 384-well plate. Then, the plate was incubated at 37 °C with 5% CO2 humidified air in an incubator overnight. • (2) Day 2, compound preparation: A test compound was diluted to a storage concentration with dimethyl sulfoxide (DMSO), and stored in a freezer at -20 °C. A compound addition program was set up on the ECHO liquid workstation, and the compound was added to the plate using the ECHO liquid workstation. A positive control was prepared using Retigabine (RTG) with a maximum concentration of 100 µM, which was subjected to a 3-fold dilution, resulting in a total of 9 doses constituting the plate map required for plating. Prepare the plate using a stimulation buffer containing 5 mM K^+ and 1 mM Tl^+. Note: 1) K2SO4 and Tl2SO4 were prepared in a 1× chloride-free buffer. When different voltage-gated potassium channels were involved, the concentrations of Tl^+ and K^+ were needed to be adjusted. The concentration of Tl^+ was approximately 0.5 mM to 5 mM, and the concentration of K^+ was approximately 5 mM to 30 mM. 2) Each 1 mM solution of K2SO4 and Tl2SO4 contained 2 mM K^+ and Tl^+. The final concentration should be calculated based on the ion concentrations. 3) TlCl was easily precipitated and a chloride-free buffer was required. • (3) Day 2, assay testing: When the cells reached the confluence degree, the cell analysis plate was taken out from the incubator. The assay buffer was prepared and the Tl^+ dye (Molecular Devices # R8222) was diluted. The culture medium was discarded using the liquid workstation Bravo and 25 µL of Tl^+ dye was added to each well. The plate was incubated for 1 hour, and then the cell analysis plate, composite plate, and FLIPR tip were placed in FLIPR^TETRA (Molecular Devices, USA) for FLIPR assay. The tip was set up, and then the baseline was read for 60 seconds. Then, 12.5 µL from the composite plate (3×) was added to the cell analysis plate, and the data were recorded for at least 5 minutes at the same time. • (4) Data processing: The maximum signal was generated with FLIPR software. Excel (2013) and Prism 6.01 were used for data analysis. The data quality control was performed with S/B > 2.00 and Z-factor > 0.50. IC50 or EC50 was defined as the midline between the lowest and the highest plateaus, and it was calculated using a four-parameter logistic model with Prism 6.01.
# Purpose of the assay: To determine the in vitro concentration-response relationship of the compounds in a CHO cell line stably expressing hKCNQ2/3 using FLIPR thallium flux assay. […]
# T1 sequence (O43525 whole entry): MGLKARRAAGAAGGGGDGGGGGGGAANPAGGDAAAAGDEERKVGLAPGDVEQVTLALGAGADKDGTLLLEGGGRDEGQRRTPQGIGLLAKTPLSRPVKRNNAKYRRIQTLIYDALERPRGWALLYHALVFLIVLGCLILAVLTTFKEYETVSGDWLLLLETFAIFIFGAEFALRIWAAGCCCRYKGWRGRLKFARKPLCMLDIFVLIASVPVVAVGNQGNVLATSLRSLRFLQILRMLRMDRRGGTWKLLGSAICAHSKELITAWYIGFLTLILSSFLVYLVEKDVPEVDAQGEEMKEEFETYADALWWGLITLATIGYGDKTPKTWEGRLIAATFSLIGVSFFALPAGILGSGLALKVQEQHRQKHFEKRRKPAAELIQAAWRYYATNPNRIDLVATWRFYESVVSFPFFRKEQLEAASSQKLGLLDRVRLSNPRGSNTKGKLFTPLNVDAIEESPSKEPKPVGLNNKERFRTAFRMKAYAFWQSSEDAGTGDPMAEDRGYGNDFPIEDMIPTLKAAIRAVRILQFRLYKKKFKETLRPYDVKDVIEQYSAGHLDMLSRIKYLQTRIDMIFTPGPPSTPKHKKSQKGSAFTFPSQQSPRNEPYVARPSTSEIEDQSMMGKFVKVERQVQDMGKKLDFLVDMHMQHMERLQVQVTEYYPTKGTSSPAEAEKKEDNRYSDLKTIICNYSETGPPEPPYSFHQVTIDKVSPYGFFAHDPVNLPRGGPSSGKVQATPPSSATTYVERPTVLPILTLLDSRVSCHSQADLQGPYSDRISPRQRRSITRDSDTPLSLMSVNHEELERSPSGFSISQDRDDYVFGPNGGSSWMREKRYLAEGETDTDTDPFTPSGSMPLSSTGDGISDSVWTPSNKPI
# T1 sequence (O43526 whole entry): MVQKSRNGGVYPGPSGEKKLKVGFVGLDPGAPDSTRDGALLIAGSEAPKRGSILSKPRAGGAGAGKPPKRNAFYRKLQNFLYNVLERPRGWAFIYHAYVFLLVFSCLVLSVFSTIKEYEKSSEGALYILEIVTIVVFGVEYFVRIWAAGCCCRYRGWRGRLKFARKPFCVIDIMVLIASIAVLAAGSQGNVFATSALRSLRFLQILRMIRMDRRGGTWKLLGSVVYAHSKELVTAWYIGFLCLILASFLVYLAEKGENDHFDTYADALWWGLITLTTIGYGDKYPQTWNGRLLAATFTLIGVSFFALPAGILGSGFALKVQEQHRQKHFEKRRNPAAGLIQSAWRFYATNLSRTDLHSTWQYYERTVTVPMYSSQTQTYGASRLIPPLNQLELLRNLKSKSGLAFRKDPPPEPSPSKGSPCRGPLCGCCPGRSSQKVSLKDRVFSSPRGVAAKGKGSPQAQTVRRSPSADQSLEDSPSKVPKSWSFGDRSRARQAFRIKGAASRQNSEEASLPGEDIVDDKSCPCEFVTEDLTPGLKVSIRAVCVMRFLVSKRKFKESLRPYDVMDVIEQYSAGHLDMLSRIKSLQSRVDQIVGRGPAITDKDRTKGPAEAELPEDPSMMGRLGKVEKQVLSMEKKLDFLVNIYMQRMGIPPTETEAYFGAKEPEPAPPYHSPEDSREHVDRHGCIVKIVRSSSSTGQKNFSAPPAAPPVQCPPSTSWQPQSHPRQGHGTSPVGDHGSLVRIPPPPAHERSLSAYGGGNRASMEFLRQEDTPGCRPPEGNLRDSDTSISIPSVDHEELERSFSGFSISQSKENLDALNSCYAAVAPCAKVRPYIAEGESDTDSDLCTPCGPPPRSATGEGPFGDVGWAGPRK
row,Structure (SMILES),EC50 [nM]
1,CC(C)(C)CC(=O)Nc1nc2c(C(F)(F)F)cc(C#N)cn2c1C12CC(C1)C2 [Compound 6],710
2,CC(C)(C)CC(=O)Nc1nc2c(F)cc(C#N)cn2c1C12CC(C1)C2 [Compound 5],200
3,CC(C)(C)CC(=O)Nc1nc2c(F)cc(C#N)cn2c1C1=CCCC1 [Compound 3],480
